How the values were obtained:
Aerobacter aerogenes = conditions: cited from earlier work
Brevibacterium helvolum = conditions: cited from earlier work
Pseudomonas aeruginosa = conditions: cited from earlier work
Escherichia coli K-12 = conditions: cited from earlier work
S. marcescens = conditions: cited from earlier work
A. ureafaciens = conditions: cited from earlier work
"Sikang 1" cotton = assay: Induced resistance of cotton to salt stress; assay type: in vivo; conditions: 100 mM NaCl, three days
Protocol: The experimental material was “Sikang 1” cotton, which was cultured in water in a 500 mL plastic cup, and a ½ Hoagland nutrient solution was changed every three days. When the cotton seedling grew until the second true leaf fully unfolded, the leaf surface was sprayed with 2-amino-3-methylhexanoic acid solutions. The concentrations of 0, 1, 10, 100 and 1,000 nM were set in the experiment, and 0.02% Tween 20 was added as a surfactant. The spraying was repeated once after 24 h and conducted twice in total. On the second day after the treatment, NaCl was added to the ½ Hoagland nutrient solution to a final concentration of 100 mM to conduct salt stress treatment. There were three repetitions in each treatment group. Rehydration treatment was conducted after three days of salt stress, the salt injury symptoms of cotton were observed, and the salt injury index was calculated by a formula as follows: […]

tomato = assay: Induced resistance of tomato to high temperature stress; assay type: in vivo
Protocol: (§1) 2-amino-3-methylhexanoic acid was dissolved in distilled water and diluted with distilled water into solutions of 1 nM, 10 nM, 100 nM and 1,000 nM by gradient. A blank control was additionally set, and 0.02% Tween 20 was added as a surfactant. 4 groups of repetitions were set for each concentration, and a normal temperature blank control was set at the same time. Ryegrass seeds were weighed according to 0.8 g per pot, sowed in a pot with a diameter of 8.5 cm, and planted in a greenhouse at a temperature of 25° C., a humidity of 60%-70%, and a light intensity of 200 μmolm^−2s^−1 (12 h light/12 h dark). On the 8th day of the seedling stage, the ryegrass was sprayed with the 2-amino-3-methylhexanoic acid solutions on the leaves twice in 24 h. 24 h after the second treatment, the plants were transferred to a light incubator at a temperature of 45° C. for conducting high temperature stress treatment for 12 h, and then the plants were taken out and transferred to a greenhouse at a temperature of 25° C. for 7 days of recovery. The injured conditions of the plants were observed and counted, and the heat injury grade was calculated. […] After the counting, the fresh weight of the aboveground part of the plant was weighed, and then the aboveground part was baked in an 85° C. oven for 48 h to determine the dry weight.
Tomato seeds were sowed in small pots, and three tomato seedlings with the same growth condition were transplanted into one pot after emergence. The planting method and conditions were the same as above. When the tomato grew for 18 days in the seedling stage, the experiment was conducted. High temperature stress was conducted at 42° C. for 9 h, and the treatment method and subsequent statistical indexes were the same as those of the above.

wheat = assay: Induced resistance of wheat to high temperature stress; assay type: in vivo; conditions: for Dry weight of overground part / Fresh weight of overground part / Heat injury index: 45° C. 9 h, 7 days recovery
Protocol: as §1, with “2-amino-3-methylhexanoic acid was dissolved in distilled water and diluted with distilled water into solutions of 1 nM, 10 nM, 100 nM and 1,000 nM by gradient.” left out
Wheat seeds were weighed according to 1.5 g per pot, and planted by a method and under conditions the same as those of ryegrass. When the wheat grew for two weeks in the seedling stage, the experiment was conducted. High temperature stress was conducted for 9 h, and the treatment method and subsequent statistical indexes were the same as those of the ryegrass mentioned above.

Bacillus subtilis = conditions: cited from earlier work
[1] = 10 nM, 42° C. 9 h, 7 days recovery
[2] = 100 nM, 42° C. 9 h, 7 days recovery
[3] = 1,000 nM, 42° C. 9 h, 7 days recovery

Compound: CCCC(C)C(N)C(=O)O (centres unmarked) [2-amino-3-methylhexanoic acid]
- Inhibitory effect (Aerobacter aerogenes): no inhibitory effect
- Inhibitory effect (Brevibacterium helvolum): no inhibitory effect
- Inhibitory effect (Pseudomonas aeruginosa): slight inhibitory effect
- Inhibitory effect (Escherichia coli K-12): obvious inhibitory effect
- Inhibitory effect (S. marcescens): no inhibitory effect
- Inhibitory effect (A. ureafaciens): slight inhibitory effect
- Death rate ("Sikang 1" cotton; 1 nM): 50%
- Salt injury index ("Sikang 1" cotton; 1 nM): 67%
- Death rate ("Sikang 1" cotton; 10 nM): 50%
- Salt injury index ("Sikang 1" cotton; 10 nM): 63%
- Death rate ("Sikang 1" cotton; 100 nM): 33%
- Salt injury index ("Sikang 1" cotton; 100 nM): 56%
- Death rate ("Sikang 1" cotton; 1,000 nM): 33%
- Salt injury index ("Sikang 1" cotton; 1,000 nM): 47%
- Optimum concentration inducing resistance to high temperature stress (tomato): 1,000 nM
- Dry weight of overground part (tomato; [1]): 0.05 ± 0.01b g
- Heat injury index (tomato; [1]): 95
- Dry weight of overground part (tomato; [2]): 0.06 ± 0.02 g·h
- Fresh weight of overground part (tomato; [2]): 0.61 ± 0.16abc g
- Heat injury index (tomato; [2]): 90
- Dry weight of overground part (tomato; [3]): 0.08 ± 0.003ab g
- Heat injury index (tomato; [3]): 60
- Dry weight of overground part (wheat; 10 nM): 0.72 ± 0.04bc g
- Fresh weight of overground part (wheat; 10 nM): 1.76 ± 0.13c g
- Heat injury index (wheat; 10 nM): 85%
- Dry weight of overground part (wheat; 100 nM): 0.75 ± 0.04c g
- Fresh weight of overground part (wheat; 100 nM): 1.87 ± 0.12c g
- Heat injury index (wheat; 100 nM): 75%
- Dry weight of overground part (wheat; 1,000 nM): 0.78 ± 0.05bc g
- Fresh weight of overground part (wheat; 1,000 nM): 2.11 ± 0.30c g
- Heat injury index (wheat; 1,000 nM): 65%
- Decrease of heat injury index (wheat; 10,000 nM): 40%
- Dry weight of aboveground part higher than untreated control group (wheat; 10,000 nM): 31.94%
- Fresh weight of aboveground part higher than untreated control group (wheat; 10,000 nM): 102.84%
- Dry weight of overground part (wheat; 10,000 nM): 0.95 ± 0.04ab g
- Fresh weight of overground part (wheat; 10,000 nM): 3.57 ± 0.50b g
- Heat injury index (wheat; 10,000 nM): 40%
- Inhibitory effect (Bacillus subtilis): obvious inhibitory effect

Reference: patent publication US20240057598A1, “USE OF 2-AMINO-3-METHYLHEXANOIC ACID AS PLANT IMMUNITY INDUCER” (NANJING AGRICULTURAL UNIVERSITY, priority 2020, published 2024)
